Data reported in patent publication US9963467B2, “Boronic acid derivatives and therapeutic uses thereof” (Rempex Pharmaceuticals, Inc., priority 2014, dated 2018).

Tests used:
[1] = tested on: KP1004 (KPC-2); experiment: Biapenem potentiation (MPC@1), KP1004; conditions: BLI with biapenem at 1 μg/mL
[2] = tested on: KP1086 (OXA-48); experiment: Biapenem potentiation (MPC@1), KP1086; conditions: BLI with biapenem at 1 μg/mL
[3] = tested on: ECL1002; experiment: Aztreonam potentiation (MPC@4), ECL1002; assay type: cell-based; conditions: BLI with aztreonam at 4 μg/mL
[4] = tested on: EC1010 (CMY-6); experiment: organism not typed; assay type: cell-based
[5] = target: CTX-M-14 (Escherichia coli, UniProt Q9L5C7); experiment: Ki, nitrocefin cleavage by purified enzyme, CTX-M-14; assay type: biochemical; conditions: nitrocefin reporter substrate; read-out: Ki (CTX-M-14, NCF)
Sequence of CTX-M-14 (Q9L5C7 29-291): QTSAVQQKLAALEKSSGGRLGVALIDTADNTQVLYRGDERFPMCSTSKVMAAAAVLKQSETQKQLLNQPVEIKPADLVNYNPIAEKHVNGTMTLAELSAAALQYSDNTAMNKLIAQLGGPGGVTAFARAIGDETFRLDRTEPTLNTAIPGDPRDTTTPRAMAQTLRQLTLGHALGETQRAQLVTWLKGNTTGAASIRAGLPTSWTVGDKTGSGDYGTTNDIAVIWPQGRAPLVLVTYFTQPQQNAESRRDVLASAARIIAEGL
Experimental: (§1) Purified enzymes were mixed with various concentrations of inhibitors in reaction buffer and incubated for 10 min at room temperature. Nitrocefin was added and substrate cleavage profiles were recorded at 490 nm every 10 sec for 10 min.

[6] = tested on: ec302 (TEM-10); experiment: Tigemonam potentiation (MPC@4), ec302; assay type: cell-based
[7] = tested on: ec308 (SHV-5); experiment: Tigemonam potentiation (MPC@4), ec308; assay type: cell-based
[8] = tested on: KP1010 (SHV-12); experiment: Tigemonam potentiation (MPC@4), KP1010; assay type: cell-based
[9] = target: Pa AmpC (Pseudomonas aeruginosa, UniProt P24735); experiment: Ki, nitrocefin cleavage by purified enzyme, Pa AmpC; assay type: biochemical; conditions: nitrocefin reporter substrate; read-out: Ki (Pa AmpC, NCF)
Sequence of Pa AmpC (P24735 27-397): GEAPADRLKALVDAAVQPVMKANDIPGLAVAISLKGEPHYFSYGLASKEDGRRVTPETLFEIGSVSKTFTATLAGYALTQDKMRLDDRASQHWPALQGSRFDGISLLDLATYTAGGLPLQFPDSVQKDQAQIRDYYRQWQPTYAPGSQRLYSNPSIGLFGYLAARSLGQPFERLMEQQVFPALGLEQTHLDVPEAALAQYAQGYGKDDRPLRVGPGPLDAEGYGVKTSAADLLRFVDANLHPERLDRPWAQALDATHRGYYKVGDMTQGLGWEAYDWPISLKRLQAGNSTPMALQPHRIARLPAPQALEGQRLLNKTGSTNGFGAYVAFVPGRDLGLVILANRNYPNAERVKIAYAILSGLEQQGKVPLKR
Experimental: Ki values of inhibition of purified class A, C and D enzymes were determined spectrophotometrically using nitrocefin as reporter substrate. Purified enzymes were mixed with various concentrations of inhibitors in reaction buffer and incubated for 10 min at room temperature. Nitrocefin was added and substrate cleavage profiles were recorded at 490 nm every 10 sec for 10 min. These experiments confirmed that the described compounds are inhibitors with a broad-spectrum of activity towards various β-lactamases.

[10] = target: KPC-2 (Klebsiella pneumoniae, UniProt Q9F663); experiment: Ki, nitrocefin cleavage by purified enzyme, KPC-2; assay type: biochemical; conditions: nitrocefin reporter substrate; read-out: Ki (KPC-2, NCF)
Sequence of KPC-2 (Q9F663 25-293, looked up, species assumed): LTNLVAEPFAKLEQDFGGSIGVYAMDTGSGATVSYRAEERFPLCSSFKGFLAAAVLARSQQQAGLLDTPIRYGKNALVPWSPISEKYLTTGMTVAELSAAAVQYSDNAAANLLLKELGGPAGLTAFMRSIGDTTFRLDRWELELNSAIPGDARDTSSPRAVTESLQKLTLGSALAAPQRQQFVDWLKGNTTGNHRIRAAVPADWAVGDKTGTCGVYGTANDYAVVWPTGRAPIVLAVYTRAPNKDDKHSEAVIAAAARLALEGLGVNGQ
Experimental: as §1

[11] = target: OXA-48 (Klebsiella pneumoniae, UniProt Q6XEC0); experiment: Ki, nitrocefin cleavage by purified enzyme, OXA-48; assay type: biochemical; conditions: nitrocefin reporter substrate; read-out: Ki (OXA-48, NCF)
Sequence of OXA-48 (Q6XEC0 23-265, looked up, species assumed): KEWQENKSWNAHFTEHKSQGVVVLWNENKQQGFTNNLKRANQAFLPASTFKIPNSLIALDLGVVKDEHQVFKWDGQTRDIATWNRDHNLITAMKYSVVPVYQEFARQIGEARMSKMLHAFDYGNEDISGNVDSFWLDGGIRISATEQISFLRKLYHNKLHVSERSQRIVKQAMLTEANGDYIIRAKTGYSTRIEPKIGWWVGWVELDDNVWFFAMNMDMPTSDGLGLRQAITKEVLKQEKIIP
Experimental: as §1

[12] = Monomer content of pH adjusted aqueous solutions (LC-UV); assay type: physicochemical; conditions: 1 mg/mL aqueous salt solution, pH adjusted to 7.6 to 8, LC-UV
Experimental: Boronic acid containing compounds are known to undergo oligomerization. The presence of oligomers can greatly complicate drug development, as they represent new chemical species whose content must be controlled and qualified by testing in toxoicology studies. The monomer content of compounds was evaluated by adjusting aqueous solutions to physiological pH at various concentrations. The monomer content of pH adjusted solutions was measured using LC-UV. Test compounds were weighed out into a 1.5 mL Eppendorf tube. A solution of water was prepared in 1.00 mg/mL, 10.0 mg/mL or 100 mg/mL concentrations of the compound based on active fraction. A volume 20 uL was subtracted to allow room for addition of acid or base to adjust pH. The solution pH was measured. The pH was then adjusted through addition of acid or base as necessary until the reading was in the 7.6 to 8 range. A final pH measurement was made after ensuring all the compound was in solution. The solution was injected onto LC-UV in 0.1 uL to 5 uL volume within less than half an hour after the time the sample was prepared. Elution was done using 0.1% TFA in water for mobile phase A and 0.085% TFA in methanol for mobile phase B on an Excel ACE 5 Super C18 2.1×100 mm column at 0.6 ml/min flow rate with 9 min gradient, 3.9 minute hold at 90% B and 18 minute run time. The absorption was measured at 220, 254 and 300 nm with a 4 nm bandwidth.

[13] = tested on: ECL1002; experiment: Tigemonam potentiation (MPC@4), ECL1002; assay type: cell-based; conditions: BLI with tigemonam at 4 μg/mL
[14] = tested on: EC1010 (CMY-6); experiment: Tigemonam potentiation (MPC@4), EC1010; assay type: cell-based; conditions: BLI with tigemonam at 4 μg/mL
[15] = tested on: KP1005 (CTX-M-14); experiment: Tigemonam potentiation (MPC@4), KP1005; assay type: cell-based; conditions: BLI with tigemonam at 4 μg/mL
[16] = tested on: ec302 (TEM-10); experiment: Aztreonam potentiation (MPC@4), ec302; assay type: cell-based; conditions: BLI with aztreonam at 4 μg/mL
[17] = target: P99 (Enterobacter cloacae, UniProt P05364); experiment: Ki, nitrocefin cleavage by purified enzyme, P99; assay type: biochemical; conditions: nitrocefin reporter substrate; read-out: Ki (P99, NCF)
Sequence of P99 (P05364 21-381): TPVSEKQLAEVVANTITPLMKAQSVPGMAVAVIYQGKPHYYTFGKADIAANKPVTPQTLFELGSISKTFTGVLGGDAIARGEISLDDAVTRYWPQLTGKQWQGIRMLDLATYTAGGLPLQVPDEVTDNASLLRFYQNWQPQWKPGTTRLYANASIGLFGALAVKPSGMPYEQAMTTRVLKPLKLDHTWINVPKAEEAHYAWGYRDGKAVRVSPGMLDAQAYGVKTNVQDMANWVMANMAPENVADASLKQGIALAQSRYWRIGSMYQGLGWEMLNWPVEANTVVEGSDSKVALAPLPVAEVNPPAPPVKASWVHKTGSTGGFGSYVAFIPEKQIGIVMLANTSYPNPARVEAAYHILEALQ
Experimental: as §1

[18] = tested on: KP1009 (CTX-M-15); experiment: Tigemonam potentiation (MPC@4), KP1009; assay type: cell-based; conditions: BLI with tigemonam at 4 μg/mL
[19] = tested on: KP1004 (KPC-2); experiment: Aztreonam potentiation (MPC@4), KP1004; assay type: cell-based; conditions: BLI with aztreonam at 4 μg/mL
[20] = target: SHV-12 (Klebsiella pneumoniae, UniProt P0AD64, E235K/G234S/L31Q); experiment: Ki, nitrocefin cleavage by purified enzyme, SHV-12; assay type: biochemical; conditions: nitrocefin reporter substrate; read-out: Ki (SHV-12, NCF)
Sequence of SHV-12 (P0AD64 22-286 L31Q/G234S/E235K): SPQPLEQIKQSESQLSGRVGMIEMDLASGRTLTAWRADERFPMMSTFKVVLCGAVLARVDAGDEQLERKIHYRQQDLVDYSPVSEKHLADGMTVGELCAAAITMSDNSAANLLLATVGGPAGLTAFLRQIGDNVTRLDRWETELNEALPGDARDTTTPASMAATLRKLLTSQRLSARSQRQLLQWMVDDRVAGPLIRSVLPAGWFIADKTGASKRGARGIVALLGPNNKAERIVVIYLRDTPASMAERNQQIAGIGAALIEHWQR
Experimental: as §1

[21] = tested on: KP1009 (CTX-M-15); experiment: organism not typed; assay type: cell-based
[22] = tested on: KP1005 (CTX-M-14); experiment: Aztreonam potentiation (MPC@4), KP1005; assay type: cell-based; conditions: BLI with aztreonam at 4 μg/mL

Compound	BPM MPC1 KP1004 KPC-2 [1]	BPM MPC1 OXA-48 KP1086 [2]	AZT MPC4 ECL1002 [3]	AZT MPC4 CMY-6 EC1010 [4]	Ki [5]	TIG MPC4 TEM-10 ec302 [6]	TIG MPC4 SHV-5 ec308 [7]	TIG MPC4 SHV-12 KP1010 [8]	Ki [9]	Ki [10]	Ki [11]	TIG MPC4 ECL1002 [13]	TIG MPC4 CMY-6 EC1010 [14]	TIG MPC4 CTX-M-14 KP1005 [15]	AZT MPC4 TEM-10 ec302 [16]	Ki [17]	TIG MPC4 CTX-M-15 KP1009 [18]	AZT MPC4 KPC-2 KP1004 [19]	Ki [20]	also measured
CSCC(=O)N[C@H]1Cc2ccc(SC3CNC3)c(C(=O)O)c2OB1O [Compound 11, (R)-7-(azetidin-3-ylthio)-2-hydroxy-3-(2-(methylthio)acetamido)-3,4-dihydro-2H-benzo oxaborinine-8-carboxylic acid]	X (MIC of less than 1 μg/mL)	Y (MIC of 1 μg/mL to 10 μg/mL)	Y (MIC of 1 μg/mL to 10 μg/mL)	Y (key: X: MIC of less than 1 ng/mL; Y: MIC of 1 μg/mL to 10 μg/mL; Z: MIC of greater than 10 μg/mL)	1 to 10 nM	Z (key: X: MIC of less than 1 ng/mL; Y: MIC of 1 μg/mL to 10 μg/mL; Z: MIC of greater than 10 μg/mL)	X (key: X: MIC of less than 1 μg/mL; Y: MIC of 1 μg/mL to 10 μg/mL; Z: MIC of greater than 10 μg/mL)	X (key: X: MIC of less than 1 μg/mL; Y: MIC of 1 μg/mL to 10 μg/mL; Z: MIC of greater than 10 μg/mL)	> 10 nM	> 10 nM	1 to 10 nM	X (MIC of less than 1 μg/mL)	X (MIC of less than 1 μg/mL)	X (MIC of less than 1 μg/mL)	Y (MIC of 1 μg/mL to 10 μg/mL)	> 10 nM	Y (MIC of 1 μg/mL to 10 μg/mL)	Y (MIC of 1 μg/mL to 10 μg/mL)	1 to 10 nM	% Monomer in 1 mg/mL salt solution [12]: 88.0%
CSCC(=O)N[C@H]1Cc2ccc(SCCO)c(C(=O)O)c2OB1O [Compound 23, (R)-2-hydroxy-7-(2-hydroxyethylthio)-3-(2-(methylthio)acetamido)-3,4-dihydro-2H-benzo[e][1,2]oxaborinine-8-carboxylic acid]	X (MIC of less than 1 μg/mL)	Z (MIC of greater than 10 μg/mL)	Y (MIC of 1 μg/mL to 10 μg/mL)	Y (key: X: MIC of less than 1 ng/mL; Y: MIC of 1 μg/mL to 10 μg/mL; Z: MIC of greater than 10 μg/mL)	< 1 nM	Y (key: X: MIC of less than 1 ng/mL; Y: MIC of 1 μg/mL to 10 μg/mL; Z: MIC of greater than 10 μg/mL)	X (key: X: MIC of less than 1 μg/mL; Y: MIC of 1 μg/mL to 10 μg/mL; Z: MIC of greater than 10 μg/mL)	X (key: X: MIC of less than 1 μg/mL; Y: MIC of 1 μg/mL to 10 μg/mL; Z: MIC of greater than 10 μg/mL)	> 10 nM	> 10 nM	< 1 nM	X (MIC of less than 1 μg/mL)	Y (MIC of 1 μg/mL to 10 μg/mL)	X (MIC of less than 1 μg/mL)	Y (MIC of 1 μg/mL to 10 μg/mL)	> 10 nM	Y (MIC of 1 μg/mL to 10 μg/mL)	Y (MIC of 1 μg/mL to 10 μg/mL)	< 1 nM	AZT MPC4 CTX-M-15 KP1009 [21]: Y (key: X: MIC of less than 1 ng/mL; Y: MIC of 1 μg/mL to 10 μg/mL; Z: MIC of greater than 10 μg/mL)
O=C(O)CC(=O)N[C@H]1Cc2ccc(F)c(C(=O)O)c2OB1O [Compound 4, (R)-3-(2-carboxyacetamido)-7-fluoro-2-hydroxy-3,4-dihydro-2H-benzo[e][1,2]oxaborinine-8-carboxylic acid]	X (MIC of less than 1 μg/mL)	Z (MIC of greater than 10 μg/mL)	Y (MIC of 1 μg/mL to 10 μg/mL)	Y (key: X: MIC of less than 1 ng/mL; Y: MIC of 1 μg/mL to 10 μg/mL; Z: MIC of greater than 10 μg/mL)	< 1 nM	Z (key: X: MIC of less than 1 ng/mL; Y: MIC of 1 μg/mL to 10 μg/mL; Z: MIC of greater than 10 μg/mL)	Y (key: X: MIC of less than 1 ng/mL; Y: MIC of 1 μg/mL to 10 μg/mL; Z: MIC of greater than 10 μg/mL)	Y (key: X: MIC of less than 1 ng/mL; Y: MIC of 1 μg/mL to 10 μg/mL; Z: MIC of greater than 10 μg/mL)	> 10 nM	> 10 nM	< 1 nM	X (MIC of less than 1 μg/mL)	X (MIC of less than 1 μg/mL)	Y (MIC of 1 μg/mL to 10 μg/mL)	Y (MIC of 1 μg/mL to 10 μg/mL)	> 10 nM	X (MIC of less than 1 μg/mL)	Y (MIC of 1 μg/mL to 10 μg/mL)	< 1 nM	AZT MPC4 CTX-M-14 KP1005 [22]: Y (MIC of 1 μg/mL to 10 μg/mL)
CSCC(=O)N[C@H]1Cc2cc(F)c(F)c(C(=O)O)c2OB1O [Compound 36, (R)-6,7-difluoro-2-hydroxy-3-(2-(methylthio)acetamido)-3,4-dihydro-2H-benzo[e][1,2]oxaborinine-8-carboxylic acid]	X (MIC of less than 1 μg/mL)	Y (MIC of 1 μg/mL to 10 μg/mL)	Y (MIC of 1 μg/mL to 10 μg/mL)	Y (key: X: MIC of less than 1 ng/mL; Y: MIC of 1 μg/mL to 10 μg/mL; Z: MIC of greater than 10 μg/mL)	< 1 nM	Y (key: X: MIC of less than 1 ng/mL; Y: MIC of 1 μg/mL to 10 μg/mL; Z: MIC of greater than 10 μg/mL)	X (key: X: MIC of less than 1 μg/mL; Y: MIC of 1 μg/mL to 10 μg/mL; Z: MIC of greater than 10 μg/mL)	X (key: X: MIC of less than 1 μg/mL; Y: MIC of 1 μg/mL to 10 μg/mL; Z: MIC of greater than 10 μg/mL)	> 10 nM	> 10 nM	< 1 nM	X (MIC of less than 1 μg/mL)	X (MIC of less than 1 μg/mL)	X (MIC of less than 1 μg/mL)	Y (MIC of 1 μg/mL to 10 μg/mL)	> 10 nM	X (MIC of less than 1 μg/mL)	Y (MIC of 1 μg/mL to 10 μg/mL)	< 1 nM	–
